Patent publication US6362369B1, “Phthalic acid diamide derivatives fluorine-containing aniline compounds as starting material, agricultural and horticultural insecticides, and a method for application of the insecticides” (Nihon Nohyaku Co., Ltd., priority 1997, dated 2002)

Assays:
Type in all cases: in vivo
[1] = test system: common cutworm (Spodoptera Litura); assay: Insecticidal effect on common cutworm (Test Example 2); conditions: 500 ppm, cabbage leaf dip, second-instar larvae of common cutworm, 8 days after inoculation, 25° C.
Summary of the method: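 2nd-instar larvae on air-dried treatment, closed dish, 25° C; dead/alive counted at day 8. Mortality calculated, graded by criterion. 3 × 10 insects.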

[2] = test system: diamondback moth (Plutella xylostella); assay: Insecticidal effect on diamondback moth (Test Example 1); conditions: diamondback moth; judged by the criterion of Test Example 1
Summary of the method: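 Read-out was mortality from hatched-insect counts taken 6 days after the egg-bearing cabbage seedling was immersed, graded by set criteria. Seedlings were air-dried and kept at 25° C after treatment. Groups of 10 insects, in triplicate.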

[3] = test system: rice leafroller (Cnaphalocrocis medinalis); assay: Insecticidal effect on rice leafroller (Test Example 3); conditions: 500 ppm, rice lamina dip, third-instar larvae of rice leafroller, 4 days after inoculation, 25° C., humidity 70%
Summary of the method: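 Groups of 10 third-instar larvae, in triplicate, are placed on air-dried lamina resting on wet filter paper. Incubation runs four days at 25° C with 70% humidity before survivors and dead are tallied.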

SMILES	Insecticidal effect (Test Example 2), judged from mortality [1]	Insecticidal effect (Test Example 1), judged from mortality [2]	Insecticidal effect (Test Example 3), judged from mortality [3]
Cc1cc(OC(F)F)ccc1NC(=O)c1cccc(I)c1C(=O)NC1CC1 [compound 1452]	A (100)	A (100)	A (100)
CCC(C)NC(=O)c1c(I)cccc1C(=O)Nc1ccc(OC(F)F)cc1C (stereo not drawn) [compound 1454]	A (100)	A (100)	A (100)
Cc1cc(OC(F)F)ccc1NC(=O)c1cccc(Cl)c1C(=O)N[C@H](C)c1ccccc1 [compound 1458]	A (100)	A (100)	A (100)
Cc1cc(C(F)(F)C(F)(F)F)ccc1NC(=O)c1cccc(Cl)c1C(=O)N[C@H](C)CO [compound 1460]	C (89-80)	A (100)	A (100)
Cc1cc(C(F)(F)C(F)(F)F)ccc1NC(=O)c1cccc(I)c1C(=O)NC(C)(C)CO [compound 1464]	A (100)	A (100)	A (100)
C#CC(C)(C)NC(=O)c1c(Cl)cccc1C(=O)Nc1ccc(C(F)(F)C(F)(F)F)cc1C [compound 1466]	A (100)	A (100)	A (100)
C#CC(C)(C)NC(=O)c1cccc(Cl)c1C(=O)Nc1ccc(C(F)(F)C(F)(F)F)cc1C [compound 1467]	A (100)	A (100)	A (100)
Cc1cc(C(F)(F)C(F)(F)F)ccc1NC(=O)c1cccc(Cl)c1C(=O)NCc1ccccc1F [compound 1468]	C (89-80)	A (100)	A (100)
CCC(C)NC(=O)c1c(I)cccc1C(=O)Nc1ccc(C(F)(F)C(F)(F)F)cc1F (stereo not drawn) [compound 1472]	A (100)	A (100)	A (100)
CCC(C)NC(=O)c1c(I)cccc1C(=O)Nc1ccc(C(F)(F)C(F)(F)F)cc1Cl (stereo not drawn) [compound 1473]	A (100)	A (100)	A (100)
CC(C)NC(=O)c1c(I)cccc1C(=O)Nc1ccc(C(F)(F)C(F)(F)C(F)(F)F)cc1F [compound 1474]	A (100)	A (100)	A (100)
CCc1cc(C(F)(F)C(F)(F)F)ccc1NC(=O)c1cccc(I)c1C(=O)NC(C)(C)C [compound 1475]	A (100)	A (100)	A (100)
Cc1cc(C(F)(F)C(F)(F)F)ccc1NC(=O)c1cccc(Cl)c1C(=O)NC(C)(C)C#Cc1cccs1 [compound 1479]	A (100)	A (100)	A (100)
Cc1cc(C(F)(F)C(F)(F)F)ccc1NC(=O)c1cccc(I)c1C(=O)N[C@H](C)CO [compound 1481]	A (100)	A (100)	A (100)
Cc1cc(C(F)(F)C(F)(F)F)ccc1NC(=O)c1cccc(I)c1C(=O)N[C@@H](C)CO [compound 1482]	A (100)	A (100)	A (100)
Cc1cc(C(F)(F)C(F)(F)F)ccc1NC(=O)c1cccc(Cl)c1C(=O)NC(C)(C)c1ccc(Cl)cc1 [compound 1484]	A (100)	A (100)	A (100)
Cc1cc(C(F)(F)C(F)(F)F)ccc1NC(=O)c1cccc(Cl)c1C(=O)NC(C)(C)c1cccc(Cl)c1 [compound 1485]	A (100)	A (100)	A (100)
CCNC(=O)c1c(Cl)cccc1C(=O)Nc1ccc(C(F)(F)C(F)(F)F)cc1Cl [compound 1489]	A (100)	A (100)	A (100)

SMILES	Insecticidal effect (Test Example 2), judged from mortality [1]	Insecticidal effect (Test Example 1), judged from mortality [2]	Insecticidal effect (Test Example 3), judged from mortality [3]
CCCNC(=O)c1c(Cl)cccc1C(=O)Nc1ccc(C(F)(F)C(F)(F)F)cc1F [compound 1491]	A (100)	A (100)	A (100)
CC(C)NC(=O)c1c(Cl)cccc1C(=O)Nc1ccc(C(F)(F)C(F)(F)C(F)(F)F)cc1F [compound 1494]	A (100)	A (100)	A (100)
CCc1cc(C(F)(F)C(F)(F)F)ccc1NC(=O)c1cccc(Cl)c1C(=O)NC(C)C [compound 1495]	A (100)	A (100)	A (100)
CC(C)(C)NC(=O)c1c(Cl)cccc1C(=O)Nc1ccc(C(F)(F)C(F)(F)C(F)(F)F)cc1F [compound 1496]	A (100)	A (100)	A (100)
CCc1cc(C(F)(F)C(F)(F)F)ccc1NC(=O)c1cccc(Cl)c1C(=O)NC(C)(C)C [compound 1497]	A (100)	A (100)	A (100)
CCC(C)NC(=O)c1c(Cl)cccc1C(=O)Nc1ccc(C(F)(F)C(F)(F)F)cc1F (stereo not drawn) [compound 1498]	A (100)	A (100)	A (100)
CCC(C)NC(=O)c1c(Cl)cccc1C(=O)Nc1ccc(C(F)(F)C(F)(F)F)cc1Cl (stereo not drawn) [compound 1499]	A (100)	A (100)	A (100)
CCC(C)NC(=O)c1c(Cl)cccc1C(=O)Nc1ccc(C(F)(F)C(F)(F)C(F)(F)F)cc1F (stereo not drawn) [compound 1500]	A (100)	A (100)	A (100)
CCc1cc(C(F)(F)C(F)(F)F)ccc1NC(=O)c1cccc(Cl)c1C(=O)NC(C)CC (stereo not drawn) [compound 1501]	A (100)	A (100)	A (100)
CCNC(=O)c1c(I)cccc1C(=O)Nc1ccc(C(F)(F)C(F)(F)F)cc1F [compound 1502]	A (100)	A (100)	A (100)
CCNC(=O)c1c(I)cccc1C(=O)Nc1ccc(C(F)(F)C(F)(F)F)cc1Cl [compound 1503]	C (89-80)	A (100)	A (100)
CC(C)(C)NC(=O)c1c(I)cccc1C(=O)Nc1ccc(C(F)(F)C(F)(F)C(F)(F)F)cc1F [compound 1504]	A (100)	A (100)	A (100)
Cc1cc(C(F)(F)C(F)(F)F)ccc1NC(=O)c1cccc(F)c1C(=O)NC(C)(C)C [compound 1505]	A (100)	A (100)	A (100)
Cc1cc(OC(F)F)ccc1NC(=O)c1cccc(F)c1C(=O)NC(C)(C)C [compound 1506]	A (100)	A (100)	A (100)
CC(C)(C)NC(=O)c1c(F)cccc1C(=O)Nc1ccc(C(F)(F)C(F)(F)F)cc1F [compound 1507]	A (100)	A (100)	A (100)
CC(C)(C)NC(=O)c1c(F)cccc1C(=O)Nc1ccc(C(F)(F)C(F)(F)F)cc1Cl [compound 1508]	C (89-80)	A (100)	A (100)
CC(C)(C)NC(=O)c1c(F)cccc1C(=O)Nc1ccc(C(F)(F)C(F)(F)C(F)(F)F)cc1F [compound 1509]	C (89-80)	A (100)	A (100)
